EP1420008B1, “Composition, in particular cosmetic, comprising a secondary or tertiary amine” (L'ORÉAL, priority 2002, dated 2004)

Tests used:
[1] = tested on: jonction nerf / muscle (plaque motrice); assay: Nerve/muscle junction model (motor end plate): isolated rat phrenic nerve / diaphragm preparation, contractions induced by indirect stimulation; conditions: for inhibition at 100 µM: Rattus norvegicus, concentration 10^-4 M, contractions induced by stimulation of the phrenic nerve (0.1 à 0.5 volts, 0.3 ms, 0.1 Hz), read-out: % INHIBITION DES CONTRACTIONS
Procedure: Le composé 1 a été testé sur un modèle de jonction nerf / muscle (plaque motrice) obtenu dans une préparation nerf phrénique / diaphragme isolé de rat (muscle strié) (Pollard B.J. et al, Br.J. Anaesth., 1988, 61, 419-424).
(§1) Ce test est prédictif d'un effet anti-rides, comme cela a été vérifié par la Demanderesse sur le diazépam, qui est à la fois actif in vivo chez l'homme et dans ce test à 10^-4 M.
Le nerf phrénique et le diaphragme sont soigneusement isolés et placés dans une cuve de 50 ml remplie de liquide de survie (liquide de Krebs Henseleit) maintenu à une température de 37°C et oxygéné à l'aide d'un mélange oxygène/CO2 (95/5).
Les variations de tension du diaphragme sont enregistrées avec une pré-charge initiale de plusieurs grammes.
Après une période de relaxation de 30 mn, le diaphragme est stimulé indirectement par l'intermédiaire du nerf phrénique.
Sur chaque préparation, l'effet du composé à tester a été évalué sur les contractions induites par stimulation indirecte via stimulation sur le nerf phrénique (0.1 à 0.5 volts, 0.3 ms, 0.1 Hz). L'alvérine, connue comme composé myorelaxant à effet anti-rides d'après la demande FR-2 798 590, est utilisée comme témoin.

[2] = Anti-wrinkle effect in vivo in man (verification of the predictive value of the nerve/muscle test); conditions: in vivo chez l'homme
Excerpt: as §1

[3] = target: canaux calciques de type L, site vérapamil (Rattus norvegicus, UniProt P22002); assay: Calcium channel test: competitive inhibition of [3H](-) D 888 binding, rat cerebral cortex homogenates
Sequence of canaux calciques de type L, site vérapamil (P22002 whole entry): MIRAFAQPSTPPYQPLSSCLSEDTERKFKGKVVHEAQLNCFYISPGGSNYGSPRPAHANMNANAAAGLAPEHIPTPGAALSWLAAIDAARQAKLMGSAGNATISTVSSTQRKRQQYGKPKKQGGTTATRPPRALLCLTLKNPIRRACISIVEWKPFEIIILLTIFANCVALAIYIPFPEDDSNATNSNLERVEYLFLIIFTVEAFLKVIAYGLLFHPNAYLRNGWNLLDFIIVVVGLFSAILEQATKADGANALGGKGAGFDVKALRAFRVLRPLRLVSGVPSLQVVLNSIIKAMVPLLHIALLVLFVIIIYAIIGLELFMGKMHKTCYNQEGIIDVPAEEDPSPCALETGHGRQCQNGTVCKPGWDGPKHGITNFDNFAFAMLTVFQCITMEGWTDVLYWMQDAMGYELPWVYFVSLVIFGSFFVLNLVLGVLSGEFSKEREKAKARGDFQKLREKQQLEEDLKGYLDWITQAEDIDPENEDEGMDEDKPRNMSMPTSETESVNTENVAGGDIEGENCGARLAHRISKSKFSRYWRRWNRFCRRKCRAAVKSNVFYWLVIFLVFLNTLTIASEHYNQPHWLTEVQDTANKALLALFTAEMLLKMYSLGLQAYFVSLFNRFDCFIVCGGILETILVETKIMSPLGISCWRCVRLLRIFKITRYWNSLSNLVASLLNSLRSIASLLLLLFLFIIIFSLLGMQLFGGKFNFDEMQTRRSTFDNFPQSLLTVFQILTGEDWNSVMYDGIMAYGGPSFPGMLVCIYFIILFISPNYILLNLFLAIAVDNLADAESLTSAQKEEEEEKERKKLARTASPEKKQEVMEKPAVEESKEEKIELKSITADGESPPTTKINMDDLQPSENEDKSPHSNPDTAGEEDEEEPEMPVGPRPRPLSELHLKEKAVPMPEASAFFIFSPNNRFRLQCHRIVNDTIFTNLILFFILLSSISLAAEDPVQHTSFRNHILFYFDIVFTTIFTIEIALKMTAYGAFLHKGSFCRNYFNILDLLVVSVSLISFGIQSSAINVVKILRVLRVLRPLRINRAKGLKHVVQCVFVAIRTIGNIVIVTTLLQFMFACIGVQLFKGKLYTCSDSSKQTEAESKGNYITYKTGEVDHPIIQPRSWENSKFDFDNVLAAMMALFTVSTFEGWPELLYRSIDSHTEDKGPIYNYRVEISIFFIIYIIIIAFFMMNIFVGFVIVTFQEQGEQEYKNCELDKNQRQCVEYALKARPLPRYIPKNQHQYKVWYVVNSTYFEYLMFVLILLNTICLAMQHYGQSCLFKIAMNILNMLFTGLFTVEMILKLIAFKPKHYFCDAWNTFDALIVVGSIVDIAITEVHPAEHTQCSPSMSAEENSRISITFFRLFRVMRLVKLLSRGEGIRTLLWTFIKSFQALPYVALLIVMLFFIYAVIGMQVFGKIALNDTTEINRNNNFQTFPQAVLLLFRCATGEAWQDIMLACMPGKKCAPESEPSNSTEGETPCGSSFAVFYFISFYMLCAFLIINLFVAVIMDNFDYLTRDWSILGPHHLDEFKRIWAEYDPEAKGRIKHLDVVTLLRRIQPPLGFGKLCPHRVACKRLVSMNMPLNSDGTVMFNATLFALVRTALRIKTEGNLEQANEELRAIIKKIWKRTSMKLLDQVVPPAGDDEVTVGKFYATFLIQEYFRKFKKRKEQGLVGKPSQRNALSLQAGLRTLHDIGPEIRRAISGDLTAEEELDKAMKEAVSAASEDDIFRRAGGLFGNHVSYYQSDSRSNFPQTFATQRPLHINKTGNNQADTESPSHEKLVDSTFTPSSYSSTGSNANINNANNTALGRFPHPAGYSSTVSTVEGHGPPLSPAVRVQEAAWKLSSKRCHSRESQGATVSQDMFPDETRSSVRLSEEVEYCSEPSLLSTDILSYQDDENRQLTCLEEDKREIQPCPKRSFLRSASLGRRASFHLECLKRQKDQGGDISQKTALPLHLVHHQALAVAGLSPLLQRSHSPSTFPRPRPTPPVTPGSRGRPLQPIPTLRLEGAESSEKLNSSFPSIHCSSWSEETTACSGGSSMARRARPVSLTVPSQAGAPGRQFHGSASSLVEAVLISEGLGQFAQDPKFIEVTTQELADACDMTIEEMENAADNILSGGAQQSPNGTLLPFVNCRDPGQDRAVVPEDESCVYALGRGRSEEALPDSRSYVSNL
Excerpt: Le test mesure la capacité d'un produit à inhiber par compétition la fixation d'[…] de canaux calciques de type L, type Vérapamil. Ces canaux ont été identifiés au niveau des fibroblastes humains (Baumgarten LB and coll (1992), J. Biol. Chem, 267, 10524-10530 et Chen CF and coll (1988), Science, 239, 1024-1026).
Les études sont réalisées à partir d'homogénats de cortex cérébral de rat (membranes isolées présentant à leur surface notamment les canaux calciques de type L).
Les conditions expérimentales selon le protocole décrit par Reynolds I.J. et al., 1986, J. Pharmacol. Exp. Ther., 237, p.731, sont présentées dans le tableau 1 ci-dessous : Tableau 1
D888 et D600 sont les molécules de référence spécifiques des canaux calciques de type L, site vérapamil.
La liaison spécifique d'un ligand (D888 marqué) aux récepteurs (canaux calciques de type L, site vérapamil) est défini comme la différence entre la liaison totale et la liaison non spécifique déterminée en présence d'un excès de ligand non radioactif. Les résultats sont exprimés en pourcentage de liaison spécifique témoin et en pourcentage d'inhibition de cette liaison en présence des composés testés.
Les valeurs d'IC50 (concentration inhibant 50% de la liaison spécifique témoin) et du coefficient de Hill (nH) sont calculées pour les composés testés à partir des courbes de compétition selon un modèle de régression non linéaire. […]

SMILES	activity in the nerve/muscle junction test ([1]; 10^-4 M)	activity in vivo (anti-wrinkle effect) [2]	inhibition at 100 µM [1]	calcium channel inhibition compared with alvérine ([3]; conclusion from the IC50 values of Tableau 2)	IC50 ([3]; ligand [^3H](-) D 888 0.5 nM, non-specific D 600 (10 µM), 60 min. /22°C, measured in duplicate)
CN1C(=O)CN=C(c2ccccc2)c2cc(Cl)ccc21 [diazépam]	actif	actif			
CCCCCC(O)(CCCCC)CCN(CC)CCCc1ccccc1 [Composé 1, 6-[2-{ethyl-(3-phenyl-propyl)amino}-ethyl]-undecan-6-ol]			100%	meilleur inhibiteur de canaux calciques que l'alvérine	
CCN(CCCc1ccccc1)CCCc1ccccc1 [Alvérine]			100%		693 nM
